In brackets after ≈: the same amount, converted by molar mass.
Experiments:
Escherichia coli [1] = assay: Antibacterial activity against Escherichia coli 14-1 expressing extended-spectrum beta-lactamase; assay type: functional
Rattus norvegicus [2] = assay: (§1) Clearance in Sprague-Dawley rat at 10 mg/kg, po; assay type: ADME, organism-based; conditions: in vivo
[3] = AUC (0 to t) in Sprague-Dawley rat at 10 mg/kg, po; assay type: ADME, organism-based; conditions: in vivo
[4] = (§2) AUC (0 to infinity) in Sprague-Dawley rat at 2 mg/kg, iv; assay type: ADME, organism-based; set-up: dose 2 mg/kg, route intravenous, time infinity; conditions: Sprague-Dawley, in vivo
Enterococcus faecalis [5] = assay: Antibacterial activity against Enterococcus faecalis 14-5; assay type: functional
[6] = test system: Staphylococcus epidermidis; assay: Antibacterial activity against methicillin-sensitive Staphylococcus epidermidis 14-2; assay type: functional
Staphylococcus aureus [7] = assay: Antibacterial activity against methicillin-resistant Staphylococcus aureus 14-4; assay type: functional
[8] = Tmax in Sprague-Dawley rat at 10 mg/kg, po; assay type: ADME, organism-based; conditions: in vivo
Staphylococcus aureus [9] = assay: Antibacterial activity against methicillin-sensitive Staphylococcus aureus 14-4; assay type: functional
[10] = MRT (0 to t) in Sprague-Dawley rat at 10 mg/kg, po; assay type: ADME, organism-based; conditions: in vivo
Enterococcus faecalis [11] = assay: Antibacterial activity against Enterococcus faecalis 14-3; assay type: functional
Staphylococcus aureus [12] = assay: Antibacterial activity against methicillin-sensitive Staphylococcus aureus 14-1; assay type: functional
Rattus norvegicus [13] = assay: (§3) Half life in Sprague-Dawley rat at 10 mg/kg, po; assay type: ADME, organism-based; conditions: in vivo
[14] = test system: Staphylococcus epidermidis; assay: Antibacterial activity against methicillin-sensitive Staphylococcus epidermidis 14-3; assay type: functional
Staphylococcus aureus [15] = assay: Antibacterial activity against methicillin-sensitive Staphylococcus aureus 14-2; assay type: functional
Staphylococcus aureus [16] = assay: Antibacterial activity against methicillin-sensitive Staphylococcus aureus 14-3; assay type: functional
[17] = Clearance in Sprague-Dawley rat at 2 mg/kg, iv; assay type: ADME, organism-based; conditions: in vivo
Enterococcus faecalis [18] = assay: Antibacterial activity against Enterococcus faecalis 14-2; assay type: functional
Staphylococcus aureus [19] = assay: Antibacterial activity against methicillin-resistant Staphylococcus aureus 14-5; assay type: functional
Escherichia coli [20] = assay: Antibacterial activity against Escherichia coli 14-2 expressing extended-spectrum beta-lactamase; assay type: functional
[21] = MRT (0 to t) in Sprague-Dawley rat at 2 mg/kg, iv; assay type: ADME, organism-based; conditions: in vivo
Staphylococcus aureus [22] = assay: Antibacterial activity against methicillin-resistant Staphylococcus aureus 14-2; assay type: functional
Rattus norvegicus [23] = assay: Volume of distribution at steady state in Sprague-Dawley rat at 10 mg/kg, po; assay type: ADME, organism-based; conditions: in vivo
Escherichia coli [24] = assay: Antibacterial activity against Escherichia coli 14-2; assay type: functional
[25] = Oral bioavailability in Sprague-Dawley rat at 10 mg/kg; assay type: ADME, organism-based; conditions: in vivo
[26] = Volume of distribution at steady state in Sprague-Dawley rat at 2 mg/kg, iv; assay type: ADME, organism-based; conditions: in vivo, read-out: Vdss
[27] = Cmax in Sprague-Dawley rat at 10 mg/kg, po; assay type: ADME, organism-based; set-up: dose 10 mg/kg, route oral; conditions: in vivo
[28] = test system: Staphylococcus epidermidis; assay: Antibacterial activity against methicillin-resistant Staphylococcus epidermidis 14-1; assay type: functional
[29] = Tmax in Sprague-Dawley rat at 2 mg/kg, iv; assay type: ADME, organism-based; conditions: in vivo
[30] = Cmax in Sprague-Dawley rat at 2 mg/kg, iv; assay type: ADME, organism-based; set-up: dose 2 mg/kg, route intravenous; conditions: in vivo
[31] = test system: Staphylococcus epidermidis; assay: Antibacterial activity against methicillin-resistant Staphylococcus epidermidis 14-4; assay type: functional
[32] = (§4) AUC (0 to t) in Sprague-Dawley rat at 2 mg/kg, iv; assay type: ADME, organism-based; conditions: Sprague-Dawley, in vivo
Enterococcus faecalis [33] = assay: Antibacterial activity against Enterococcus faecalis 14-1; assay type: functional
Staphylococcus aureus [34] = assay: Antibacterial activity against methicillin-resistant Staphylococcus aureus 14-1; assay type: functional
Rattus norvegicus [35] = assay: (§5) AUC (0 to infinity) in Sprague-Dawley rat at 10 mg/kg, po; assay type: ADME, organism-based; set-up: dose 10 mg/kg, time infinity, route oral; conditions: in vivo
Escherichia coli [36] = assay: Antibacterial activity against Escherichia coli 14-1; assay type: functional
[37] = Half life in Sprague-Dawley rat at 2 mg/kg, iv; assay type: ADME, organism-based; conditions: in vivo
[38] = test system: Staphylococcus epidermidis; assay: Antibacterial activity against methicillin-sensitive Staphylococcus epidermidis 14-1; assay type: functional
[39] = as §1; assay type: ADME, organism-based; conditions: Sprague-Dawley, in vivo
Rattus norvegicus [40] = assay: as §2; assay type: ADME, organism-based; set-up: dose 2 mg/kg, route intravenous, time infinity; conditions: in vivo
[41] = as §3; assay type: ADME, organism-based; conditions: Sprague-Dawley, in vivo
Rattus norvegicus [42] = assay: as §4; assay type: ADME, organism-based; conditions: in vivo
[43] = as §5; assay type: ADME, organism-based; set-up: dose 10 mg/kg, time infinity, route oral; conditions: Sprague-Dawley, in vivo
[44] = test system: Staphylococcus epidermidis; assay: Antibacterial activity against methicillin-resistant Staphylococcus epidermidis 14-2; assay type: functional
[45] = test system: Staphylococcus epidermidis; assay: Antibacterial activity against methicillin-resistant Staphylococcus epidermidis 14-3; assay type: functional

SMILES | MIC (Escherichia coli [1]) [µg/mL] | AUC(0-t) [3] [ng·h/mL] | MIC (Enterococcus faecalis [5]) [µg/mL] | MIC [6] [µg/mL] | Tmax [8] [min] | MIC (Staphylococcus aureus [9]) [µg/mL] | MRT last [10] [h] | MIC (Enterococcus faecalis [11]) [µg/mL] | MIC (Staphylococcus aureus [12]) [µg/mL] | MIC [14] [µg/mL] | MIC (Staphylococcus aureus [15]) [µg/mL] | MIC (Staphylococcus aureus [16]) [µg/mL] | clearance [17] [mL/min/kg] | MIC (Enterococcus faecalis [18]) [µg/mL] | MIC (Staphylococcus aureus [19]) [µg/mL] | MIC (Escherichia coli [20]) [µg/mL] | MRT last [21] [h] | Vdss (Rattus norvegicus [23]) [L/kg] | MIC (Escherichia coli [24]) [µg/mL] | bioavailability [25] [%] | other results
CCCC[C@H](CN(O)C=O)C(=O)N1CC2(CC2)C[C@H]1C(=O)Nc1ccc(C)c(Nc2nccc(-c3cccnc3)n2)c1 | 4 (≈ 7 µM) | 126 | > 128 | < 0.008 | 15 | 0.015 (≈ 0.0262 µM) | 3.32 | 0.03 (≈ 0.0525 µM) | 0.015 (≈ 0.0262 µM) | < 0.008 | 0.015 (≈ 0.0262 µM) | 0.015 (≈ 0.0262 µM) | 37.7 | 0.015 (≈ 0.0262 µM) | < 0.008 | > 128 | 1.15 | 1772 | > 128 | 3 | CL (Rattus norvegicus [2]): 334 mL/h/kg; AUC(0-inf) [4]: 892 ng·h/mL; MIC (Staphylococcus aureus [7]): < 0.008 µg/mL; t1/2 (Rattus norvegicus [13]): 2.24 h; MIC (Staphylococcus aureus [22]): 0.015 µg/mL (≈ 0.0262 µM); Vd [26]: 2.6 L/kg; Cmax [27]: 100 ng/mL; MIC [28]: < 0.008 µg/mL; Tmax [29]: 4.8 min; Cmax [30]: 1080 ng/mL; MIC [31]: < 0.008 µg/mL; AUC(0-t) [32]: 881 ng·h/mL; MIC (Enterococcus faecalis [33]): 0.03 µg/mL (≈ 0.0525 µM); MIC (Staphylococcus aureus [34]): 0.015 µg/mL (≈ 0.0262 µM); AUC (Rattus norvegicus [35]): 134 ng·h/mL; MIC (Escherichia coli [36]): > 128 µg/mL; half-life [37]: 216 min; MIC [38]: 0.015 µg/mL (≈ 0.0262 µM)
CCCC[C@H](CN(O)C=O)C(=O)N1CC2(CC2)C[C@H]1C(=O)Nc1ncc(C)s1 | 0.125 (≈ 0.306 µM) | 2080 | 0.25 (≈ 0.612 µM) | < 0.008 | 34.8 | < 0.008 | 4.42 | 0.5 (≈ 1.22 µM) | < 0.008 | < 0.008 | < 0.008 | < 0.008 | 23.5 | 0.5 (≈ 1.22 µM) | < 0.008 | 32 (≈ 78.3 µM) | 1.74 | 36.5 | 32 (≈ 78.3 µM) | 30 | CL/F [39]: 82.3 mL/min/kg; AUC (Rattus norvegicus [40]): 653 ng·h/mL; half-life [41]: 300 min; Vd [26]: 3.6 L/kg; Cmax [27]: 630 ng/mL; Tmax [29]: 4.8 min; Cmax [30]: 1090 ng/mL; MIC [31]: < 0.008 µg/mL; AUCt (Rattus norvegicus [42]): 653 ng·h/mL; MIC (Enterococcus faecalis [33]): 0.125 µg/mL (≈ 0.306 µM); AUC(0-inf) [43]: 2130 ng·h/mL; MIC (Escherichia coli [36]): 32 µg/mL (≈ 78.3 µM); half-life [37]: 68.4 min; MIC [38]: < 0.008 µg/mL
CCCC[C@H](CN(O)C=O)C(=O)N1CC2(CC2)C[C@H]1C(=O)Nc1cc(C(C)(C)C)on1 | 1 (≈ 2.3 µM) | 1950 | > 128 | 0.125 (≈ 0.288 µM) | 34.8 | 0.06 (≈ 0.138 µM) | 3.43 | 0.5 (≈ 1.15 µM) | 0.125 (≈ 0.288 µM) | 0.015 (≈ 0.0345 µM) | 0.125 (≈ 0.288 µM) | 0.25 (≈ 0.575 µM) | 29.6 | 0.5 (≈ 1.15 µM) | 0.06 (≈ 0.138 µM) | 64 (≈ 147 µM) | 1.5 | 36.2 | 64 (≈ 147 µM) | 35 | CL/F [39]: 90.6 mL/min/kg; AUC(0-inf) [4]: 1140 ng·h/mL; MIC (Staphylococcus aureus [7]): < 0.008 µg/mL; half-life [41]: 271 min; MIC [44]: 0.03 µg/mL (≈ 0.069 µM); MIC (Staphylococcus aureus [22]): 0.06 µg/mL (≈ 0.138 µM); Vd [26]: 2.7 L/kg; Cmax [27]: 860 ng/mL; MIC [28]: 0.03 µg/mL (≈ 0.069 µM); MIC [45]: 0.015 µg/mL (≈ 0.0345 µM); Tmax [29]: 4.8 min; Cmax [30]: 930 ng/mL; MIC [31]: 0.03 µg/mL (≈ 0.069 µM); AUC(0-t) [32]: 1140 ng·h/mL; MIC (Enterococcus faecalis [33]): 0.5 µg/mL (≈ 1.15 µM); MIC (Staphylococcus aureus [34]): 0.06 µg/mL (≈ 0.138 µM); AUC(0-inf) [43]: 1980 ng·h/mL; MIC (Escherichia coli [36]): 64 µg/mL (≈ 147 µM); half-life [37]: 73.8 min; MIC [38]: 0.03 µg/mL (≈ 0.069 µM)
CCCC[C@H](CN(O)C=O)C(=O)N1CC2(CC2)C[C@H]1C(=O)Nc1ccc(F)c[n+]1[O-] | 1 (≈ 2.37 µM) | 1960 | 128 (≈ 303 µM) | 0.125 (≈ 0.296 µM) | 15 | 0.125 (≈ 0.296 µM) | 2.04 | 0.5 (≈ 1.18 µM) | 0.125 (≈ 0.296 µM) | 0.03 (≈ 0.071 µM) | 0.125 (≈ 0.296 µM) | 0.125 (≈ 0.296 µM) | 26.2 | 0.5 (≈ 1.18 µM) | 0.125 (≈ 0.296 µM) | 64 (≈ 151 µM) | 1.65 | 39.4 | 64 (≈ 151 µM) | 31 | CL/F [39]: 91.3 mL/min/kg; AUC(0-inf) [4]: 1280 ng·h/mL; MIC (Staphylococcus aureus [7]): 0.125 µg/mL (≈ 0.296 µM); half-life [41]: 296 min; MIC [44]: 0.06 µg/mL (≈ 0.142 µM); MIC (Staphylococcus aureus [22]): 0.25 µg/mL (≈ 0.592 µM); Vd [26]: 2.6 L/kg; Cmax [27]: 1850 ng/mL; MIC [28]: 0.03 µg/mL (≈ 0.071 µM); MIC [45]: 0.03 µg/mL (≈ 0.071 µM); Tmax [29]: 8.4 min; Cmax [30]: 1780 ng/mL; MIC [31]: 0.125 µg/mL (≈ 0.296 µM); AUC(0-t) [32]: 1260 ng·h/mL; MIC (Enterococcus faecalis [33]): 0.25 µg/mL (≈ 0.592 µM); MIC (Staphylococcus aureus [34]): 0.25 µg/mL (≈ 0.592 µM); AUC(0-inf) [43]: 1990 ng·h/mL; MIC (Escherichia coli [36]): 128 µg/mL (≈ 303 µM); half-life [37]: 218 min; MIC [38]: 0.03 µg/mL (≈ 0.071 µM)

Reference: ChEMBL document CHEMBL3822420, “New peptide deformylase inhibitors design, synthesis and pharmacokinetic assessment” (Bioorg Med Chem Lett, 2016)
